Test results reported in the NIST ThermoML archive (doi:10.1016/j.fluid.2007.01.001).
Numbers after ± are expanded uncertainties.

Test: xn = mol fraction of the nth substance listed
Settings: 101 kPa, Liquid; for viscosity: Capillary tube (Ostwald / Ubbelohde) method; for speed of sound: Frequency=2 MHz, Linear variable-path acoustic interferometer; for mass density: Pycnometric method

CCCCCCC(C)O (stereo not given) [2-octanol] + Cc1ccccc1
Settings | mass density, 298.15 K [kg/m3] | mass density, 308.15 K [kg/m3] | speed of sound, 298.15 K [m/s] | speed of sound, 308.15 K [m/s] | viscosity, 298.15 K [mPa·s] | viscosity, 308.15 K [mPa·s]
x2 = 0 | 817.08 ± 0.58 | 809.89 ± 0.6 | 1328 ± 3 | 1292 ± 3 | 6.429 ± 0.52 | 4.365 ± 0.35
x2 = 0.0494 | 818.49 ± 0.59 | 811.13 ± 0.61 | 1323 ± 3 | 1285 ± 3 | 5.547 ± 0.45 | 3.837 ± 0.31
x2 = 0.0991 | 819.89 ± 0.6 | 812.4 ± 0.61 | 1317 ± 3 | 1280 ± 3 | 4.813 ± 0.39 | 3.373 ± 0.27
x2 = 0.1497 | 821.39 ± 0.61 | 813.76 ± 0.62 | 1313 ± 3 | 1274 ± 3 | 4.186 ± 0.34 | 2.975 ± 0.24
x2 = 0.1999 | 822.91 ± 0.62 | 815.11 ± 0.63 | 1306 ± 3 | 1268 ± 3 | 3.559 ± 0.29 | 2.563 ± 0.21
x2 = 0.2511 | 824.47 ± 0.64 | 816.48 ± 0.64 | 1299 ± 3 | 1261 ± 3 | 3.069 ± 0.25 | 2.264 ± 0.18
x2 = 0.2996 | 826.03 ± 0.65 | 817.85 ± 0.66 | 1294 ± 3 | 1257 ± 3 | 2.652 ± 0.21 | 1.986 ± 0.16
x2 = 0.354 | 827.83 ± 0.66 | 819.46 ± 0.67 | 1289 ± 3 | 1250 ± 3 | 2.239 ± 0.18 | 1.685 ± 0.14
x2 = 0.3998 | 829.43 ± 0.67 | 820.91 ± 0.68 | 1285 ± 3 | 1247 ± 3 | 1.966 ± 0.16 | 1.488 ± 0.12
x2 = 0.4469 | 831.12 ± 0.68 | 822.49 ± 0.69 | 1279 ± 3 | 1243 ± 3 | 1.69 ± 0.14 | 1.276 ± 0.1
x2 = 0.5 | 833.15 ± 0.69 | 824.35 ± 0.7 | 1277 ± 3 | 1239 ± 3 | 1.462 ± 0.12 | 1.121 ± 0.09
x2 = 0.5509 | 835.22 ± 0.7 | 826.29 ± 0.7 | 1273 ± 3 | 1235 ± 3 | 1.263 ± 0.1 | 1.004 ± 0.081
x2 = 0.5995 | 837.33 ± 0.71 | 828.32 ± 0.71 | 1271 ± 3 | 1234 ± 3 | 1.104 ± 0.089 | 0.912 ± 0.073
x2 = 0.6486 | 839.67 ± 0.72 | 830.43 ± 0.72 | 1270 ± 3 | 1232 ± 3 | 0.947 ± 0.076 | 0.836 ± 0.067
x2 = 0.701 | 842.33 ± 0.73 | 832.94 ± 0.73 | 1270 ± 3 | 1233 ± 3 | 0.88 ± 0.071 | 0.77 ± 0.062
x2 = 0.7477 | 844.88 ± 0.74 | 835.37 ± 0.74 | 1271 ± 3 | 1234 ± 3 | 0.791 ± 0.064 | 0.707 ± 0.057
x2 = 0.7989 | 847.89 ± 0.74 | 838.32 ± 0.75 | 1273 ± 3 | 1237 ± 3 | 0.716 ± 0.057 | 0.649 ± 0.052
x2 = 0.8513 | 851.18 ± 0.75 | 841.6 ± 0.75 | 1278 ± 3 | 1241 ± 3 | 0.628 ± 0.05 | 0.569 ± 0.046
x2 = 0.9 | 854.46 ± 0.74 | 844.93 ± 0.74 | 1286 ± 3 | 1247 ± 3 | 0.636 ± 0.051 | 0.573 ± 0.046
x2 = 0.9511 | 858.12 ± 0.75 | 848.66 ± 0.73 | 1294 ± 3 | 1255 ± 3 | 0.574 ± 0.046 | 0.506 ± 0.041
